From PubChem BioAssay (NCI)
Values joined by “and” are separate entries in the source; they are usually repeats but may differ in a detail not shown here. Equal entries are not always repeated.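 Assay format: 96-well plates, 48-hour exposure. GI50 marks 50% less growth. TGI is the concentration that stops growth completely.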 Active and inactive are the calls of the source. Cut-off read from the data, not from the text of the source: active = GI50 below about 0.43 µM; inactive = the rest.

Legend:
Assay in all cases: NCI-60 cell line screen, 48 h
[1] = test system: 786-0 renal
[2] = test system: A549 NSCLC
[3] = test system: ACHN renal
[4] = test system: CAKI-1 renal
[5] = test system: CCRF-CEM leukemia
[6] = test system: COLO 205 colon
[7] = test system: DLD-1 colon
[8] = test system: DMS 114 small cell lung
[9] = test system: DMS 273 small cell lung
[10] = test system: EKVX NSCLC
[11] = test system: HCC-2998 colon
[12] = test system: HCT-116 colon
[13] = test system: HCT-15 colon
[14] = test system: HL-60(TB) leukemia
[15] = test system: HOP-62 NSCLC
[16] = test system: HOP-92 NSCLC
[17] = test system: HT29 colon
[18] = test system: IGROV1 ovarian
[19] = test system: K-562 leukemia
[20] = test system: KM12 colon
[21] = test system: KM20L2 colon
[22] = test system: LOX IMVI melanoma
[23] = test system: LXFL 529 NSCLC
[24] = test system: M14 melanoma
[25] = test system: M19-MEL melanoma
[26] = test system: MALME-3M melanoma
[27] = test system: MOLT-4 leukemia
[28] = test system: NCI-H226 lung
[29] = test system: NCI-H23 lung
[30] = test system: NCI-H460 lung
[31] = test system: NCI-H522 lung
[32] = test system: OVCAR-3 ovarian
[33] = test system: OVCAR-4 ovarian
[34] = test system: OVCAR-5 ovarian
[35] = test system: OVCAR-8 ovarian
[36] = test system: RPMI-8226 leukemia
[37] = test system: RXF 393 renal
[38] = test system: SF-268 CNS
[39] = test system: SF-295 CNS
[40] = test system: SF-539 CNS
[41] = test system: SK-MEL-2 melanoma
[42] = test system: SK-OV-3 ovarian
[43] = test system: SN12C renal
[44] = test system: SNB-19 CNS
[45] = test system: SNB-75 CNS
[46] = test system: SNB-78 CNS
[47] = test system: SR leukemia
[48] = test system: SW-620 colon
[49] = test system: U251 CNS
[50] = test system: UACC-257 melanoma
[51] = test system: UACC-62 melanoma
[52] = test system: UO-31 renal
[53] = test system: A498 renal
[54] = test system: DU-145 prostate
[55] = test system: HS 578T breast
[56] = test system: MDA-MB-231 breast
[57] = test system: MDA-MB-435
[58] = test system: MDA-N
[59] = test system: NCI/ADR-RES ovarian
[60] = test system: PC-3 prostate
[61] = test system: SK-MEL-28 melanoma
[62] = test system: SK-MEL-5 melanoma
[63] = test system: T-47D breast
[64] = test system: TK-10 renal

O=C1CC2CC(O1)[C@H]1O[C@H]1C2 (stereo partly drawn)
outcome [1]: inactive | outcome [2]: inactive | outcome [3]: inactive | outcome [4]: inactive | outcome [5]: inactive | outcome [6]: inactive | outcome [7]: inactive | outcome [8]: inactive | outcome [9]: inactive | outcome [10]: inactive | outcome [11]: inactive | outcome [12]: inactive | outcome [13]: inactive | outcome [14]: inactive | outcome [15]: inactive | outcome [16]: inactive | outcome [17]: inactive | outcome [18]: inactive | outcome [19]: inactive | outcome [20]: inactive | outcome [21]: inactive | outcome [22]: inactive | outcome [23]: inactive | outcome [24]: inactive | outcome [25]: inactive | outcome [26]: inactive | outcome [27]: inactive | outcome [28]: inactive | outcome [29]: inactive | outcome [30]: inactive | outcome [31]: inactive | outcome [32]: inactive | outcome [33]: inactive | outcome [34]: inactive | outcome [35]: inactive | outcome [36]: inactive | outcome [37]: inactive | outcome [38]: inactive | outcome [39]: inactive | outcome [40]: inactive | outcome [41]: inactive | outcome [42]: inactive | outcome [43]: inactive | outcome [44]: inactive | outcome [45]: inactive | outcome [46]: inactive | outcome [47]: inactive | outcome [48]: inactive | outcome [49]: inactive | outcome [50]: inactive | outcome [51]: inactive | outcome [52]: inactive

CC(=O)NC1C(OCc2ccccc2)OC(CO)C(O)C1OC(C)C(=O)NC(C)C(=O)N[C@@H](CCC(=O)OCCCNC1c2ccccc2Nc2cccc([N+](=O)[O-])c21)C(N)=O (stereo partly drawn)
GI50 [1]: 6.74 nM | TGI [1]: 30.6 nM | TGI [53]: 20 nM | GI50 [2]: 30.6 nM | TGI [3]: 46.5 nM and < 40.7 nM | GI50 [4]: 28 nM | TGI [4]: 102 nM and 16.3 nM | GI50 [5]: 44.4 nM and 24.9 nM | TGI [5]: 422 nM and 1200 nM | GI50 [6]: 13.4 nM | TGI [6]: 27.4 nM | TGI [8]: 21.5 nM | TGI [9]: < 10.6 nM | TGI [54]: 79.9 nM | TGI [10]: 33.4 nM and 35.6 nM | GI50 [11]: 16.4 nM | TGI [11]: 32.2 nM | GI50 [12]: 3.01 nM | TGI [12]: 24.2 nM and < 11.6 nM | TGI [13]: 24.5 nM | GI50 [14]: 21.1 nM | TGI [14]: 125 nM and 39.8 nM | GI50 [15]: 23.4 nM | GI50 [16]: 15.9 nM | TGI [16]: 43.4 nM and 27 nM | TGI [55]: 72.5 nM | GI50 [17]: 5.83 nM | TGI [17]: 29.5 nM and 10.2 nM | GI50 [18]: 51.4 nM | TGI [18]: 267 nM and 86.1 nM | TGI [19]: 14.1 nM | GI50 [20]: 21.1 nM | TGI [20]: 51.6 nM and < 10.7 nM | GI50 [22]: 181 nM | TGI [22]: 441 nM and 103 nM | TGI [23]: < 23.2 nM | GI50 [24]: 20.1 nM | TGI [24]: 48.5 nM | GI50 [26]: 15.7 nM | TGI [26]: 32.4 nM | TGI [56]: 74 nM | TGI [57]: 30.9 nM | TGI [58]: 31.7 nM | GI50 [27]: 40.6 nM | TGI [27]: 425 nM and 48.6 nM | GI50 [28]: 14.7 nM | TGI [28]: 45.5 nM and < 15.1 nM | TGI [29]: 29.5 nM | GI50 [30]: 1.38 nM | TGI [30]: 14 nM and 13 nM | GI50 [31]: 13.8 nM | TGI [31]: 40.5 nM and < 15.1 nM | TGI [59]: 54.5 nM | GI50 [32]: 27.2 nM | TGI [32]: 94.5 nM and 10.2 nM | GI50 [33]: 31.4 nM | TGI [33]: 140 nM and < 18 nM | GI50 [34]: 10.5 nM | TGI [34]: 73.7 nM and 48.8 nM | GI50 [35]: 20 nM | TGI [35]: 76.5 nM and 34.7 nM | TGI [60]: 141 nM | TGI [36]: < 17.4 nM | TGI [37]: 32 nM | GI50 [38]: 19.5 nM | TGI [38]: 63.9 nM and 51.2 nM | GI50 [39]: 67.7 nM | TGI [39]: 433 nM and 59.6 nM | GI50 [40]: 29.7 nM | TGI [40]: 110 nM and 16.7 nM | GI50 [41]: 22.1 nM | TGI [41]: 53.2 nM | GI50 [61]: 27 nM | TGI [61]: 64.3 nM and 15.5 nM | GI50 [62]: 20 nM | TGI [62]: 53.8 nM and 15.2 nM | GI50 [42]: 147 nM | TGI [42]: 644 nM and 96.5 nM | GI50 [43]: 17.8 nM | TGI [43]: 97.5 nM and < 12.2 nM | GI50 [44]: 30.3 nM | TGI [44]: 211 nM and 58.4 nM | GI50 [45]: 28.4 nM | TGI [45]: 145 nM and 48 nM | TGI [46]: 40.7 nM | GI50 [47]: 0.3 nM | TGI [47]: 9.48 nM and 22.1 nM | GI50 [48]: 1.35 nM | TGI [48]: 17 nM and 55.7 nM | TGI [63]: 669 nM | TGI [64]: 30.1 nM | GI50 [49]: 13.8 nM | TGI [49]: 49.7 nM and 15.9 nM | TGI [50]: 15.9 nM | TGI [51]: < 11.2 nM | TGI [52]: 38.4 nM

O=C1C=C(Nc2ccc(Br)cc2)c2ccccc2C1=O
TGI [1]: 28300 nM | TGI [53]: 31000 nM | TGI [2]: 32800 nM | TGI [3]: 16200 nM | TGI [5]: 32300 nM | TGI [6]: 31000 nM | TGI [8]: 18000 nM | TGI [9]: 25700 nM | TGI [10]: 32500 nM | TGI [11]: 28500 nM | TGI [12]: 26500 nM | TGI [13]: 18900 nM | TGI [14]: 22400 nM | TGI [15]: 30700 nM | TGI [17]: 34000 nM | TGI [18]: 33200 nM | TGI [19]: 34000 nM | TGI [20]: 29600 nM | TGI [21]: 39300 nM | TGI [23]: 25400 nM | TGI [24]: 28800 nM | TGI [25]: 3290 nM | TGI [26]: 28700 nM | TGI [27]: 30500 nM | TGI [28]: 38200 nM | TGI [29]: 15300 nM | TGI [30]: 23800 nM | TGI [31]: 25500 nM | TGI [32]: 19700 nM | TGI [33]: 6130 nM | TGI [34]: 35300 nM | TGI [35]: 29300 nM | TGI [36]: 24900 nM | TGI [37]: 30600 nM | TGI [38]: 27600 nM | TGI [39]: 29800 nM | TGI [40]: 30300 nM | TGI [41]: 30100 nM | TGI [61]: 31300 nM | TGI [42]: 31000 nM | TGI [43]: 29600 nM | TGI [44]: 29200 nM | TGI [45]: 23300 nM | TGI [47]: 16500 nM | TGI [48]: 27200 nM | TGI [64]: 33800 nM | TGI [49]: 16000 nM | TGI [50]: 26500 nM | TGI [51]: 15300 nM | TGI [52]: 29600 nM
